In PubChem BioAssay (NCI):
Values joined by “and” are separate entries in the source; they are usually repeats but may differ in a detail not shown here. Equal values may be shown once.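 Test compounds were applied to cells in 96-well plates for 48 hours at 5 doses. At the GI50, growth is halved. At the TGI there is no net growth.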

Columns and labels:
Assay in all cases: NCI-60 cell line screen, 48 h
[1] = tested on: A498 renal
[2] = tested on: BT-549 breast
[3] = tested on: CAKI-1 renal
[4] = tested on: CCRF-CEM leukemia
[5] = tested on: COLO 205 colon
[6] = tested on: DU-145 prostate
[7] = tested on: HCC-2998 colon
[8] = tested on: HCT-116 colon
[9] = tested on: HCT-15 colon
[10] = tested on: HL-60(TB) leukemia
[11] = tested on: HOP-62 NSCLC
[12] = tested on: HOP-92 NSCLC
[13] = tested on: HS 578T breast
[14] = tested on: HT29 colon
[15] = tested on: IGROV1 ovarian
[16] = tested on: K-562 leukemia
[17] = tested on: KM12 colon
[18] = tested on: M14 melanoma
[19] = tested on: MALME-3M melanoma
[20] = tested on: MCF7 breast
[21] = tested on: MDA-MB-231 breast
[22] = tested on: MDA-MB-435
[23] = tested on: MDA-N
[24] = tested on: MOLT-4 leukemia
[25] = tested on: NCI-H226 lung
[26] = tested on: NCI-H23 lung
[27] = tested on: NCI-H460 lung
[28] = tested on: NCI-H522 lung
[29] = tested on: NCI/ADR-RES ovarian
[30] = tested on: OVCAR-3 ovarian
[31] = tested on: OVCAR-5 ovarian
[32] = tested on: OVCAR-8 ovarian
[33] = tested on: PC-3 prostate
[34] = tested on: RPMI-8226 leukemia
[35] = tested on: RXF 393 renal
[36] = tested on: SF-295 CNS
[37] = tested on: SK-MEL-2 melanoma
[38] = tested on: SK-MEL-28 melanoma
[39] = tested on: SK-MEL-5 melanoma
[40] = tested on: SK-OV-3 ovarian
[41] = tested on: SN12C renal
[42] = tested on: SNB-19 CNS
[43] = tested on: SNB-75 CNS
[44] = tested on: SR leukemia
[45] = tested on: T-47D breast
[46] = tested on: U251 CNS
[47] = tested on: UACC-62 melanoma
[48] = tested on: UO-31 renal
[49] = tested on: 786-0 renal
[50] = tested on: A549 NSCLC
[51] = tested on: ACHN renal
[52] = tested on: EKVX NSCLC
[53] = tested on: LOX IMVI melanoma
[54] = tested on: OVCAR-4 ovarian
[55] = tested on: SF-268 CNS
[56] = tested on: SF-539 CNS
[57] = tested on: SW-620 colon
[58] = tested on: TK-10 renal
[59] = tested on: UACC-257 melanoma

COC(=O)C(Cc1ccccc1)NC(=O)C(CNC(=O)OCc1ccccc1)C(=O)OCc1ccccc1 (stereo not given)
TGI [1]: > 100 µM
TGI [2]: > 100 µM
TGI [3]: > 100 µM
GI50 [4]: > 100 µM and 38.5 µM
TGI [4]: > 100 µM
TGI [5]: > 100 µM
TGI [6]: > 100 µM
TGI [7]: > 100 µM
TGI [8]: > 100 µM
TGI [9]: > 100 µM
GI50 [10]: > 100 µM and 21.6 µM
TGI [10]: > 100 µM
GI50 [11]: 18 µM and 94.1 µM
TGI [11]: 39.9 µM and > 100 µM
GI50 [12]: > 100 µM and 31.9 µM
TGI [12]: > 100 µM
GI50 [13]: 59 µM
TGI [13]: > 100 µM
TGI [14]: > 100 µM
TGI [15]: > 100 µM
TGI [16]: > 100 µM
TGI [17]: > 100 µM
GI50 [18]: > 100 µM and 10.2 µM
TGI [18]: > 100 µM and 26.8 µM
GI50 [19]: > 100 µM and 44.4 µM
TGI [19]: > 100 µM
TGI [20]: > 100 µM and 79.8 µM
TGI [21]: > 100 µM and 64.6 µM
GI50 [22]: > 100 µM and 44.5 µM
TGI [22]: > 100 µM
TGI [23]: > 100 µM
GI50 [24]: > 100 µM and 10.4 µM
TGI [24]: > 100 µM and 30.3 µM
TGI [25]: > 100 µM
TGI [26]: > 100 µM
GI50 [27]: 94.1 µM and 13.5 µM
TGI [27]: > 100 µM and 36.5 µM
TGI [28]: > 100 µM
TGI [29]: > 100 µM
TGI [30]: > 100 µM
TGI [31]: > 100 µM
TGI [32]: > 100 µM
TGI [33]: > 100 µM
TGI [34]: > 100 µM
TGI [35]: 34.1 µM
GI50 [36]: > 100 µM and 28.6 µM
TGI [36]: > 100 µM and 80.2 µM
TGI [37]: > 100 µM
GI50 [38]: > 100 µM and 20.8 µM
TGI [38]: > 100 µM and 41.7 µM
GI50 [39]: > 100 µM and 14.5 µM
TGI [39]: > 100 µM and 31.4 µM
TGI [40]: > 100 µM
TGI [41]: > 100 µM
TGI [42]: > 100 µM
TGI [43]: > 100 µM
TGI [44]: > 100 µM
TGI [45]: > 100 µM
TGI [46]: > 100 µM
GI50 [47]: 52.2 µM and 22.1 µM
TGI [47]: > 100 µM and 85.8 µM
TGI [48]: > 100 µM

O=S(Nc1ccccc1)c1ccc(Cl)cc1 (stereo not given)
TGI [49]: > 100 µM
TGI [50]: > 100 µM
TGI [51]: > 100 µM
TGI [2]: > 100 µM
TGI [3]: > 100 µM
TGI [4]: > 100 µM
TGI [5]: > 100 µM
TGI [6]: > 100 µM
TGI [52]: > 100 µM
TGI [7]: > 100 µM
TGI [8]: > 100 µM
TGI [9]: > 100 µM
TGI [10]: > 100 µM
TGI [11]: > 100 µM
TGI [13]: > 100 µM
TGI [14]: > 100 µM
TGI [15]: > 100 µM
TGI [16]: > 100 µM
TGI [17]: 59.9 µM
TGI [53]: > 100 µM
TGI [18]: > 100 µM
TGI [19]: > 100 µM
TGI [20]: > 100 µM
TGI [21]: > 100 µM
TGI [22]: > 100 µM
TGI [23]: > 100 µM
TGI [24]: > 100 µM
TGI [25]: > 100 µM
TGI [26]: > 100 µM
TGI [27]: > 100 µM
TGI [28]: > 100 µM
TGI [29]: > 100 µM
TGI [30]: > 100 µM
TGI [54]: > 100 µM
TGI [31]: > 100 µM
TGI [32]: > 100 µM
TGI [34]: > 100 µM
TGI [55]: 82.9 µM
TGI [36]: > 100 µM
TGI [56]: 46.7 µM
TGI [37]: > 100 µM
TGI [38]: > 100 µM
TGI [39]: > 100 µM
TGI [41]: > 100 µM
TGI [42]: > 100 µM
TGI [44]: > 100 µM
TGI [57]: > 100 µM
TGI [45]: > 100 µM
TGI [58]: > 100 µM
TGI [46]: > 100 µM
TGI [59]: > 100 µM
TGI [47]: 90 µM
TGI [48]: > 100 µM
